Experimental data from the CheMixHub viscosity set.
± gives the uncertainty stated by the source.

Assay: xn = mol fraction of the nth substance listed

SMILES: C=CC(=O)OCC + CCCCCCCCO
- viscosity (298.15 K, 101.3 kPa, x1 = 0.0771): 5.444 ± 0.23 mPa·s
- viscosity (298.15 K, 101.3 kPa, x1 = 0.2017): 3.576 ± 0.16 mPa·s
- viscosity (298.15 K, 101.3 kPa, x1 = 0.2664): 2.914 ± 0.13 mPa·s
- viscosity (298.15 K, 101.3 kPa, x1 = 0.3869): 2.043 ± 0.094 mPa·s
- viscosity (298.15 K, 101.3 kPa, x1 = 0.4933): 1.543 ± 0.073 mPa·s
- viscosity (298.15 K, 101.3 kPa, x1 = 0.6865): 0.96 ± 0.048 mPa·s
- viscosity (298.15 K, 101.3 kPa, x1 = 0.7722): 0.785 ± 0.04 mPa·s
- viscosity (298.15 K, 101.3 kPa, x1 = 0.8504): 0.681 ± 0.036 mPa·s
- viscosity (298.15 K, 101.3 kPa, x1 = 0.9275): 0.582 ± 0.031 mPa·s
- viscosity (298.15 K, 101.3 kPa, x1 = 0.9634): 0.546 ± 0.03 mPa·s
- viscosity (308.15 K, 101.3 kPa, x1 = 0.0771): 4.096 ± 0.18 mPa·s
- viscosity (308.15 K, 101.3 kPa, x1 = 0.2017): 2.812 ± 0.13 mPa·s
- viscosity (308.15 K, 101.3 kPa, x1 = 0.2664): 2.301 ± 0.11 mPa·s
- viscosity (308.15 K, 101.3 kPa, x1 = 0.3869): 1.663 ± 0.078 mPa·s
- viscosity (308.15 K, 101.3 kPa, x1 = 0.4933): 1.268 ± 0.061 mPa·s
- viscosity (308.15 K, 101.3 kPa, x1 = 0.6865): 0.825 ± 0.042 mPa·s
- viscosity (308.15 K, 101.3 kPa, x1 = 0.7722): 0.678 ± 0.036 mPa·s
- viscosity (308.15 K, 101.3 kPa, x1 = 0.8504): 0.586 ± 0.032 mPa·s
- viscosity (308.15 K, 101.3 kPa, x1 = 0.9275): 0.507 ± 0.028 mPa·s
- viscosity (308.15 K, 101.3 kPa, x1 = 0.9634): 0.478 ± 0.027 mPa·s

SMILES: C=CC(=O)OCC + CCCCCCCO
- viscosity (298.15 K, 101.3 kPa, x1 = 0.0736): 4.585 ± 0.2 mPa·s
- viscosity (298.15 K, 101.3 kPa, x1 = 0.1906): 3.017 ± 0.14 mPa·s
- viscosity (298.15 K, 101.3 kPa, x1 = 0.2456): 2.513 ± 0.11 mPa·s
- viscosity (298.15 K, 101.3 kPa, x1 = 0.3599): 1.864 ± 0.087 mPa·s
- viscosity (298.15 K, 101.3 kPa, x1 = 0.4687): 1.399 ± 0.067 mPa·s
- viscosity (298.15 K, 101.3 kPa, x1 = 0.6637): 0.923 ± 0.046 mPa·s
- viscosity (298.15 K, 101.3 kPa, x1 = 0.7551): 0.778 ± 0.04 mPa·s
- viscosity (298.15 K, 101.3 kPa, x1 = 0.8399): 0.655 ± 0.035 mPa·s
- viscosity (298.15 K, 101.3 kPa, x1 = 0.9223): 0.576 ± 0.031 mPa·s
- viscosity (298.15 K, 101.3 kPa, x1 = 0.9662): 0.534 ± 0.029 mPa·s
- viscosity (308.15 K, 101.3 kPa, x1 = 0.0736): 3.306 ± 0.15 mPa·s
- viscosity (308.15 K, 101.3 kPa, x1 = 0.1906): 2.411 ± 0.11 mPa·s
- viscosity (308.15 K, 101.3 kPa, x1 = 0.2456): 2.01 ± 0.093 mPa·s
- viscosity (308.15 K, 101.3 kPa, x1 = 0.3599): 1.531 ± 0.072 mPa·s
- viscosity (308.15 K, 101.3 kPa, x1 = 0.4687): 1.18 ± 0.057 mPa·s
- viscosity (308.15 K, 101.3 kPa, x1 = 0.6637): 0.778 ± 0.04 mPa·s
- viscosity (308.15 K, 101.3 kPa, x1 = 0.7551): 0.658 ± 0.035 mPa·s
- viscosity (308.15 K, 101.3 kPa, x1 = 0.8399): 0.564 ± 0.031 mPa·s
- viscosity (308.15 K, 101.3 kPa, x1 = 0.9223): 0.505 ± 0.028 mPa·s
- viscosity (308.15 K, 101.3 kPa, x1 = 0.9662): 0.471 ± 0.027 mPa·s

SMILES: COC(C)(C)C + CCCCCCO
- viscosity (298.15 K, 101 kPa, x1 = 0.0204): 4.315 ± 0.18 mPa·s
- viscosity (298.15 K, 101 kPa, x1 = 0.0304): 4.175 ± 0.17 mPa·s
- viscosity (298.15 K, 101 kPa, x1 = 0.0495): 3.925 ± 0.16 mPa·s
- viscosity (303.15 K, 101 kPa, x1 = 0.0495): 3.395 ± 0.14 mPa·s

SMILES: COCCOCCOCCOCCOC + CCCCCCO
- viscosity (293.15 K, 100 kPa, x2 = 0.1043): 3.597 ± 0.029 mPa·s
- viscosity (293.15 K, 100 kPa, x2 = 0.2031): 3.447 ± 0.028 mPa·s
- viscosity (293.15 K, 100 kPa, x2 = 0.3014): 3.317 ± 0.027 mPa·s
- viscosity (293.15 K, 100 kPa, x2 = 0.4023): 3.222 ± 0.026 mPa·s
- viscosity (293.15 K, 100 kPa, x2 = 0.5043): 3.167 ± 0.026 mPa·s
- viscosity (293.15 K, 100 kPa, x2 = 0.6003): 3.167 ± 0.026 mPa·s
- viscosity (293.15 K, 100 kPa, x2 = 0.7007): 3.216 ± 0.026 mPa·s
- viscosity (293.15 K, 100 kPa, x2 = 0.8057): 3.482 ± 0.028 mPa·s
- viscosity (293.15 K, 100 kPa, x2 = 0.8986): 3.977 ± 0.032 mPa·s
- viscosity (298.15 K, 100 kPa, x2 = 0.1043): 3.177 ± 0.026 mPa·s
- viscosity (298.15 K, 100 kPa, x2 = 0.2031): 3.048 ± 0.025 mPa·s
- viscosity (298.15 K, 100 kPa, x2 = 0.3014): 2.933 ± 0.024 mPa·s
- viscosity (298.15 K, 100 kPa, x2 = 0.4023): 2.852 ± 0.023 mPa·s
- viscosity (298.15 K, 100 kPa, x2 = 0.5043): 2.8 ± 0.023 mPa·s
- viscosity (298.15 K, 100 kPa, x2 = 0.6003): 2.797 ± 0.023 mPa·s
- viscosity (298.15 K, 100 kPa, x2 = 0.7007): 2.835 ± 0.023 mPa·s
- viscosity (298.15 K, 100 kPa, x2 = 0.8057): 3.049 ± 0.025 mPa·s
- viscosity (298.15 K, 100 kPa, x2 = 0.8986): 3.453 ± 0.028 mPa·s
- viscosity (303.15 K, 100 kPa, x2 = 0.1043): 2.83 ± 0.023 mPa·s
- viscosity (303.15 K, 100 kPa, x2 = 0.2031): 2.716 ± 0.022 mPa·s
- viscosity (303.15 K, 100 kPa, x2 = 0.3014): 2.617 ± 0.022 mPa·s
- viscosity (303.15 K, 100 kPa, x2 = 0.4023): 2.543 ± 0.021 mPa·s
- viscosity (303.15 K, 100 kPa, x2 = 0.5043): 2.494 ± 0.021 mPa·s
- viscosity (303.15 K, 100 kPa, x2 = 0.6003): 2.488 ± 0.021 mPa·s
- viscosity (303.15 K, 100 kPa, x2 = 0.7007): 2.52 ± 0.021 mPa·s
- viscosity (303.15 K, 100 kPa, x2 = 0.8057): 2.688 ± 0.022 mPa·s
- viscosity (303.15 K, 100 kPa, x2 = 0.8986): 3.023 ± 0.025 mPa·s
- viscosity (308.15 K, 100 kPa, x2 = 0.1043): 2.538 ± 0.021 mPa·s
- viscosity (308.15 K, 100 kPa, x2 = 0.2031): 2.438 ± 0.02 mPa·s
- viscosity (308.15 K, 100 kPa, x2 = 0.3014): 2.35 ± 0.02 mPa·s
- viscosity (308.15 K, 100 kPa, x2 = 0.4023): 2.282 ± 0.019 mPa·s
- viscosity (308.15 K, 100 kPa, x2 = 0.5043): 2.237 ± 0.019 mPa·s
- viscosity (308.15 K, 100 kPa, x2 = 0.6003): 2.227 ± 0.019 mPa·s
- viscosity (308.15 K, 100 kPa, x2 = 0.7007): 2.251 ± 0.019 mPa·s
- viscosity (308.15 K, 100 kPa, x2 = 0.8057): 2.387 ± 0.02 mPa·s
- viscosity (308.15 K, 100 kPa, x2 = 0.8986): 2.661 ± 0.022 mPa·s
- viscosity (313.15 K, 100 kPa, x2 = 0.1043): 2.293 ± 0.019 mPa·s
- viscosity (313.15 K, 100 kPa, x2 = 0.2031): 2.204 ± 0.018 mPa·s
- viscosity (313.15 K, 100 kPa, x2 = 0.3014): 2.124 ± 0.018 mPa·s
- viscosity (313.15 K, 100 kPa, x2 = 0.4023): 2.062 ± 0.017 mPa·s
- viscosity (313.15 K, 100 kPa, x2 = 0.5043): 2.019 ± 0.017 mPa·s
- viscosity (313.15 K, 100 kPa, x2 = 0.6003): 2.007 ± 0.017 mPa·s
- viscosity (313.15 K, 100 kPa, x2 = 0.7007): 2.023 ± 0.017 mPa·s
- viscosity (313.15 K, 100 kPa, x2 = 0.8057): 2.131 ± 0.018 mPa·s
- viscosity (313.15 K, 100 kPa, x2 = 0.8986): 2.356 ± 0.02 mPa·s
- viscosity (318.15 K, 100 kPa, x2 = 0.1043): 2.093 ± 0.018 mPa·s
- viscosity (318.15 K, 100 kPa, x2 = 0.2031): 2.012 ± 0.017 mPa·s
- viscosity (318.15 K, 100 kPa, x2 = 0.3014): 1.94 ± 0.016 mPa·s
- viscosity (318.15 K, 100 kPa, x2 = 0.4023): 1.88 ± 0.016 mPa·s
- viscosity (318.15 K, 100 kPa, x2 = 0.5043): 1.845 ± 0.016 mPa·s
- viscosity (318.15 K, 100 kPa, x2 = 0.6003): 1.826 ± 0.016 mPa·s
- viscosity (318.15 K, 100 kPa, x2 = 0.7007): 1.838 ± 0.016 mPa·s
- viscosity (318.15 K, 100 kPa, x2 = 0.8057): 1.926 ± 0.016 mPa·s
- viscosity (318.15 K, 100 kPa, x2 = 0.8986): 2.111 ± 0.018 mPa·s
